# Test results published in ChEMBL document CHEMBL1133487, “Synthesis and biological evaluation of 2,5-dihydropyrazol” (Bioorg Med Chem Lett, 2000).
# Tests used:
# [1] = biological target: Phosphodiesterase 3 (Homo sapiens, UniProt Q14432+Q13370); assay: Inhibitory potency against guinea pig ventricular phosphodiesterase 3; type: protein assay, Cavia porcellus; conditions: target entry is the homologue from another species
# [2] = biological target: Phosphodiesterase 4 (Homo sapiens, UniProt P27815+Q08499+Q07343+Q08493); assay: Inhibitory potency against guinea pig ventricular phosphodiesterase 4; type: protein assay, Cavia porcellus; conditions: target entry is the homologue from another species
# [3] = system: Canis familiaris; assay: Minimum emetic dose in dogs after intravenous administration; type: functional, Canis lupus familiaris
# [4] = system: Cavia porcellus; assay: Inhibition of Eosinophilia after peroral administration at 10 mg/Kg compound in guinea pig; type: functional; conditions: po
# [5] = system: Cavia porcellus; assay: Inhibition of histamine induced bronchoconstriction in guinea pig after intravenous administration; type: functional
# [6] = system: Canis familiaris; assay: Minimum emetic dose in dogs after peroral administration; type: functional, Canis lupus familiaris
SMILES,IC50 [1],IC50 [2],Dose [3],inhibition in vivo at 10 mg/kg [4],ED50 [5],Dose [6]
CCCCn1nc2c3ccccc3n(Cc3cccc(N)c3)cc-2c1=O,> 200 µM,12 µM,–,–,–,–
CCCCn1nc2c3ccccc3n(Cc3ccccc3)cc-2c1=O,31 µM,2.1 µM,>3 mg/kg,52%,> 0.1 mg/kg,–
CC(C)(C)n1nc2c3ccccc3n(Cc3ccccc3)cc-2c1=O,> 100 µM,2.1 µM,–,51%,–,>10 mg/kg
O=c1c2cn(Cc3ccccc3)c3ccccc3c-2nn1C1CCCC1,26 µM,0.7 µM,–,–,–,–
CCCCn1nc2c3ccccc3n(Cc3cccs3)cc-2c1=O,> 20 µM,2.7 µM,–,56%,0.037 mg/kg,>10 mg/kg
Cn1nc2c3ccccc3n(Cc3ccccc3)cc-2c1=O,67 µM,14 µM,–,–,–,–
O=c1c2cn(Cc3ccccc3)c3ccccc3c-2nn1CCc1ccccc1,> 100 µM,10 µM,–,–,–,–
O=c1c2cn(Cc3ccccc3)c3ccccc3c-2nn1CC1CCC1,> 200 µM,0.8 µM,–,–,–,–
CC(C)(C)n1nc2c3ccccc3n(Cc3cccs3)cc-2c1=O,> 20 µM,0.8 µM,–,–,–,–
O=c1c2cn(Cc3ccccc3)c3ccccc3c-2nn1C1CC2CCC1C2 (configuration not stated),> 20 µM,1.4 µM,–,–,–,–
CCn1c(=O)c2ccccc2n(-c2cccc([N+](=O)[O-])c2)c1=O [NITRAQUAZONE],> 200 µM,0.05 µM,–,–,–,–
CCCCn1nc2c3ccccc3n(Cc3cccc(Cl)c3)cc-2c1=O,> 20 µM,2.3 µM,–,53%,0.062 mg/kg,>10 mg/kg
O=c1c2cn(CC3CCCCC3)c3ccccc3c-2nn1C1CCCC1,> 20 µM,0.4 µM,–,–,–,–
CCCCCn1nc2c3ccccc3n(Cc3ccccc3)cc-2c1=O,120 µM,6.4 µM,–,–,–,–
O=c1c2cn(Cc3ccccc3)c3ccccc3c-2nn1Cc1ccccc1,25 µM,7 µM,–,–,–,–
CCCCn1nc2c3ccccc3n(CC3CCCCC3)cc-2c1=O,111 µM,0.7 µM,>1 mg/kg,60%,> 0.1 mg/kg,–
CCCCn1nc2c3ccccc3n(CCc3ccccc3)cc-2c1=O,> 200 µM,160 µM,–,–,–,–
COc1ccc(C2CNC(=O)C2)cc1OC1CCCC1 (configuration not stated) [ROLIPRAM],–,–,0.03 mg/kg,58%,0.004 mg/kg,–
CC(C)(C)n1nc2c3ccccc3n(CC3CCCCC3)cc-2c1=O,> 20 µM,0.5 µM,–,–,–,–
CCCCn1nc2c3ccccc3n(-c3ccccc3)cc-2c1=O,68 µM,18 µM,–,–,–,–
CCCCn1[nH]c2c(cnc3ccccc32)c1=O,136 µM,90 µM,–,–,–,–
CC(C)n1nc2c3ccccc3n(Cc3ccccc3)cc-2c1=O,86 µM,1.2 µM,–,–,–,–
O=c1[nH]nc2c3ccccc3n(Cc3ccccc3)cc1-2,48 µM,37 µM,–,–,–,–
CCCCn1nc2c3ccccc3n(Cc3cccc([N+](=O)[O-])c3)cc-2c1=O,> 20 µM,11 µM,–,–,–,–
O=c1c2cn(Cc3ccccc3)c3ccccc3c-2nn1CC1CCCCC1,102 µM,24 µM,–,–,–,–
CCn1nc2c3ccccc3n(Cc3ccccc3)cc-2c1=O,10 µM,3 µM,–,–,–,–
O=c1c2cn(Cc3cccs3)c3ccccc3c-2nn1C1CCCC1,> 20 µM,0.4 µM,>3 mg/kg,62%,0.083 mg/kg,–
